≈ marks a conversion by molar mass, not a printed value. Where “and” joins values, the source holds several entries; their conditions need not be identical. Identical values can stand only once. Counter-ions that a name gives are not always drawn. One block for each compound: values may come before it.
Assays:
[1] = test system: MCF-7 (estrogen receptor positive breast cancer); experiment: In vitro anticancer assay (SRB), MCF-7; format: cell-based, human
Method: (§1) All stock cultures were grown in T-25 flasks. Freshly trypsinized cell suspensions were seeded in 96-well microtiter plates at densities of 1500-7500 cells per well with compounds added from DMSO-diluted stock. After 3 days in culture, attached cells were fixed with cold 50% trichloroacetic acid and then stained with 0.4% sulforhodamine B (SRB). The absorbency at 562 nm was measured using a microplate reader after solubilizing the bound dye.
as §1, with “Biological assay. All” for “All”, “cultures are” for “cultures were”, “96-well microtitre” for “96-well microtiter”

[2] = test system: MDA-MB-231 (estrogen receptor negative breast cancer); experiment: In vitro anticancer assay (SRB), MDA-MB-231; format: cell-based, human
Method: as §1
as §1, with “Biological assay. All” for “All”, “cultures are” for “cultures were”, “96-well microtitre” for “96-well microtiter”

[3] = test system: ZR-75-1 (estrogen receptor positive breast cancer); experiment: In vitro anticancer assay (SRB), ZR-75-1; format: cell-based, human; conditions: concentration that reduces cell growth by 50%, 3 days in culture
Method: as §1
as §1, with “Biological assay. All” for “All”, “cultures are” for “cultures were”, “96-well microtitre” for “96-well microtiter”

[4] = test system: HS 587-T (estrogen receptor negative breast cancer); experiment: In vitro anticancer assay (SRB), HS 587-T; format: cell-based, human; conditions: concentration that reduces cell growth by 50%, 3 days in culture
Method: as §1
as §1, with “Biological assay. All” for “All”, “cultures are” for “cultures were”, “96-well microtitre” for “96-well microtiter”

[5] = test system: SK-BR-3 (HER-2-overexpressing breast cancer); experiment: In vitro anticancer assay (SRB), SK-BR-3; format: cell-based, human
Method: (§2) In Vitro Anticancer Assay (Nakanishi, Y. et al., J. Med. Chem. 2003, 46, 3185). All stock cultures were grown in T-25 flasks. Freshly trypsinized cell suspensions were seeded in 96-well microtiter plates at densities of 1500-7500 cells per well with compounds added from DMSO-diluted stock. After 3 days in culture, attached cells were fixed with cold 50% trichloroacetic acid and then stained with 0.4% sulforhodamine B (SRB). The absorbency at 562 nm was measured using a microplate reader after solubilizing the bound dye. The mean ED50 is the concentration of agent that reduces cell growth by 50% under the experimental conditions and is the average from at least three independent determinations that were reproducible and statistically significant (FIG. 2). The following human tumor cell lines were used in the assay: A549 (non small cell lung cancer), MCF-7 (estrogen receptor positive breast cancer), ZR-75-1 (estrogen receptor positive breast cancer), MDA-MB-231 (estrogen receptor negative breast cancer), HS 587-T (estrogen receptor negative breast cancer), SK− BR-3 (HER-2-overexpressing breast cancer), A431 (EGFRoverexpressing skin cancer), LN-CaP (AR-dependent prostate cancer), SW620 (colon cancer), PC-3 (prostate cancer), KB (nasopharyngeal carcinoma), KB-VIN (vincristine-resistant KB subline). All cell lines were obtained from the Lineberger Comprehensive Cancer Center (UNC-CH) or from ATCC (Rockville, Md.) and were cultured in RPMI-1640 medium supplemented with 25 mMHEPES, 0.25% sodium bicarbonate, 10% fetal bovine serum, and 100 μg/mL kanamycin.
(§3) Biological assay. All stock cultures are grown in T-25 flasks. Freshly trypsinized cell suspensions were seeded in 96-well microtitre plates at densities of 1500-7500 cells per well with compounds added from DMSO-diluted stock. After 3 days in culture, attached cells were fixed with cold 50% trichloroacetic acid and then stained with 0.4% sulforhodamine B (SRB). The absorbency at 562 nm was measured using a microplate reader after solubilizing the bound dye. The mean ED50 is the concentration of agent that reduces cell growth by 50% under the experimental conditions and is the average from at least three independent determinations that were reproducible and statistically significant. The following human tumor cell lines were used in the assay: A549 (non-small cell lung cancer), MCF-7 (estrogen receptor positive breast cancer), ZR-75-1 (estrogen receptor positive breast cancer), MDA MB-231 (estrogen receptor negative breast cancer), HS 587-T (estrogen receptor negative breast cancer), SK-BR-3 (estrogen receptor negative, HER-2 over-expressing breast cancer), A431 (EGFR over-expressing skin cancer), LN-CaP (AR-dependent prostate cancer), SW620 (colon cancer), PC-3 (prostate cancer), KB (nasopharyngeal carcinoma), KB-VIN (Vincristine resistant KB subline). All cell lines were obtained from the Lineberg Cancer Center (UNC-CH) or from ATCC (Rockville, Md.) and were cultured in RPMI-1640 medium supplemented with 25 mM HEPES, 0.25% sodium bicarbonate, 10% fetal bovine serum, and 100 μg/mL kanamycin.

[6] = test system: A431 (EGFR over-expressing skin cancer); experiment: In vitro anticancer assay (SRB), A431; format: cell-based, human
Method: as §2, §3

[7] = test system: LN-CaP (AR-dependent prostate cancer); experiment: In vitro anticancer assay (SRB), LN-CaP; format: cell-based, human; conditions: for ED50, LN-CaP: concentration that reduces cell growth by 50%, 3 days in culture, SRB
Method: as §2
as §1, with “Biological assay. All” for “All”, “cultures are” for “cultures were”, “96-well microtitre” for “96-well microtiter”, “dye. The mean ED50 is the concentration of agent that reduces cell growth by 50% under the experimental conditions and is the average from at least three independent determinations that were reproducible and statistically significant. […]” for “dye.”

[8] = test system: SW620 (colon cancer); experiment: In vitro anticancer assay (SRB), SW620; format: cell-based, human
Method: as §2, §3

[9] = test system: PC-3 (prostate cancer); experiment: In vitro anticancer assay (SRB), PC-3; format: cell-based, human; conditions: concentration that reduces cell growth by 50%, 3 days in culture
Method: as §1, with “In Vitro Anticancer Assay (Nakanishi, Y. et al., J. Med. Chem. 2003, 46, 3185). All” for “All”, “dye. The mean ED50 is the concentration of agent that reduces cell growth by 50% under the experimental conditions and is the average from at least three independent determinations that were reproducible and statistically significant (FIG. 2). […]” for “dye.”
(§4) Biological assay. […] The absorbency at 562 nm was measured using a microplate reader after solubilizing the bound dye. […]

[10] = test system: KB (nasopharyngeal carcinoma); experiment: In vitro anticancer assay (SRB), KB; format: cell-based, human
Method: as §2, §3

[11] = test system: KB-VIN (vincristine-resistant KB subline); experiment: In vitro anticancer assay (SRB), KB-VIN; format: cell-based, human; conditions: for ED50, KB-VIN: concentration that reduces cell growth by 50%, 3 days in culture, SRB
Method: as §2
as §1, with “Biological assay. All” for “All”, “cultures are” for “cultures were”, “96-well microtitre” for “96-well microtiter”, “dye. […]” for “dye.”

[12] = test system: A549 (non small cell lung cancer); experiment: In vitro anticancer assay (SRB), A549; format: cell-based, human
Method: as §1, with “In Vitro Anticancer Assay (Nakanishi, Y. et al., J. Med. Chem. 2003, 46, 3185). All” for “All”, “dye. The mean ED50 is the concentration of agent that reduces cell growth by 50% under the experimental conditions and is the average from at least three independent determinations that were reproducible and statistically significant (FIG. 2). […]” for “dye.”
as §4

[13] = test system: several human cancer cell lines; experiment: Cytotoxic activity against several human tumor cell lines (panel, overall statements); format: cell-based; conditions: at concentrations up to 10 μg/mL
Method: as §2
as §1, with “Biological assay. All” for “All”, “cultures are” for “cultures were”, “96-well microtitre” for “96-well microtiter”, “dye. […]” for “dye.”

[14] = test system: ER+ human breast cancer (MCF-7 and ZR-75-1); experiment: Comparison of potency and selectivity against ER+ breast cancer cell lines in vitro; format: cell-based
Method: as §2
as §1, with “Biological assay. All” for “All”, “cultures are” for “cultures were”, “96-well microtitre” for “96-well microtiter”, “dye. The mean ED50 is the concentration of agent that reduces cell growth by 50% under the experimental conditions and is the average from at least three independent determinations that were reproducible and statistically significant. […]” for “dye.”

[15] = concentration that reduces cell growth by 50%, 3 days in culture, SRB
[16] = concentration that reduces cell growth by 50%, 3 days in culture, SRB, listed as Neo-tashinlactone (1)
[17] = against ER+ (ER+ and HER-2++) breast cancer in vitro
[18] = concentration that reduces cell growth by 50%, 3 days in culture, SRB, listed as Tamoxifen citrate

Percent inhibition at the test concentration (bracketed value), MCF-7 ([1]; at 2.5 μg/mL (Table 1)): 57% | ED50, MCF-7 (ER+) [1, 15]: 0.6 µg/mL and 0.60 µg/mL | ED50, MCF-7 (ER+) [1, 16]: < 2.5 µg/mL | concentration at which active against MCF-7 ([1]; first screen, Example 1): 0.6˜1.2 μg/mL | Percent inhibition at the test concentration (bracketed value), MDA-MB-231 ([2]; at 20 μg/mL (Table 1)): 17% | ED50, MDA-MB-231 (ER−) [2, 15]: 10 µg/mL and 10.0 µg/mL | ED50, MDA-MB-231 (ER−) [2, 16]: > 20 µg/mL | ED50, ZR-75-1 (ER+) [3]: 0.25 µg/mL (≈ 0.946 µM) | ED50, HS 587-T (ER−) ([4]; printed HS587-1 in Table 4): 16 µg/mL and 16.0 µg/mL
Structure (SMILES): Cc1cccc2c1ccc1c3occ(C)c3c(=O)oc21 [Compound 1, Neo-tanshinlactone]
activity against SK-BR-3 (in words) ([5]; HER-2-overexpressing breast cancer cell line): active | ED50, SK-BR-3 (ER−, HER2+) [5, 15]: 0.2 µg/mL and 0.18 µg/mL | fold more sensitive, SK-BR-3 versus MCF-7 ([5]; ratio of sensitivity of the two cell lines): 3 fold | activity against A431 (in words) ([6]; EGFR overexpressing skin cancer cell line): essentially inactive | Percent inhibition at the test concentration (bracketed value), A431 ([6]; at 10 μg/mL (Table 2)): 35% | ED50, A431 [6, 15]: > 10 µg/mL | activity against LN-CaP (in words) ([7]; AR-dependent prostate cancer cell line): essentially inactive | Percent inhibition at the test concentration (bracketed value), LN-CaP ([7]; at 10 μg/mL (Table 2)): 28-36% | ED50, LN-CaP [7]: > 10 µg/mL | Percent inhibition at the test concentration (bracketed value), SW620 ([8]; at 10 μg/mL (Table 2)): 22% | ED50, SW620 [8, 15]: > 10 µg/mL | ED50, PC-3 [9]: 10 µg/mL (≈ 37.8 µM) | Percent inhibition at the test concentration (bracketed value), KB ([10]; at 10 μg/mL (Table 2)): 18% | ED50, KB [10, 15]: > 10 µg/mL | Percent inhibition at the test concentration (bracketed value), KB-VIN ([11]; at 10 μg/mL (Table 2)): 9% | ED50, KB-VIN [11]: > 10 µg/mL | Percent inhibition at the test concentration (bracketed value), A549 ([12]; at 20 μg/mL (Table 1)): 10% | ED50, A549 [12, 15]: > 20 µg/mL | activity against other cell lines in the panel (in words) [13]: insignificant activity | fold more potent than tamoxifen citrate [14, 17]: 10 fold | fold more selective than tamoxifen citrate [14, 17]: 20 fold | times better activity than compound 2a and tamoxifen ([14]; against ER+ cell lines): 10 times

Structure (SMILES): CC/C(=C(\c1ccccc1)c1ccc(OCCN(C)C)cc1)c1ccccc1 [TAM, tamoxifen citrate, reference compound]
IC50 ([1]; Homo sapiens, MCF7, 72 h, concentration that reduces cell growth by 50%, 3 days in culture, SRB, read-out: ED50, MCF-7 (ER+)): 5 µg/mL | ED50, MCF-7 (ER+) [1, 15]: 5.0 µg/mL | ED50, MCF-7 (ER+) [1, 18]: 5.0 µg/mL | IC50 ([2]; Homo sapiens, MDA-MB-231, 72 h, concentration that reduces cell growth by 50%, 3 days in culture, SRB, read-out: ED50, MDA-MB-231 (ER−)): 8 µg/mL | ED50, MDA-MB-231 (ER−) [2, 18]: 7.0 µg/mL | IC50 ([3]; Homo sapiens, ZR-75-1, 72 h, read-out: ED50, ZR-75-1 (ER+)): 5 µg/mL | ED50, ZR-75-1 (ER+) ([3]; listed as Tamoxifen citrate): 3.6 µg/mL | ED50, HS 587-T (ER−) ([4]; printed HS587-1 in Table 4): 9 µg/mL and 7.0 µg/mL | ED50, HS 587-T (ER−) ([4]; printed HS587-1 in Table 4, listed as Tamoxifen citrate): 8.5 µg/mL | IC50 ([5]; Homo sapiens, SK-BR-3, 72 h, concentration that reduces cell growth by 50%, 3 days in culture, SRB, read-out: ED50, SK-BR-3 (ER−, HER2+)): 5 µg/mL | ED50, SK-BR-3 (ER−, HER2+) [5, 15]: 5.0 µg/mL | IC50 ([6]; Homo sapiens, A-431, 72 h, concentration that reduces cell growth by 50%, 3 days in culture, SRB, read-out: ED50, A431): 7 µg/mL | ED50, A431 [6, 15]: 7.0 µg/mL | ED50, LN-CaP [7]: 6 µg/mL | IC50 ([8]; Homo sapiens, SW-620, 72 h, concentration that reduces cell growth by 50%, 3 days in culture, SRB, read-out: ED50, SW620): 4 µg/mL | ED50, SW620 [8, 15]: 4.0 µg/mL | ED50, PC-3 [9]: 10 µg/mL | IC50 ([10]; Homo sapiens, 72 h, concentration that reduces cell growth by 50%, 3 days in culture, SRB, read-out: ED50, KB): 9 µg/mL | ED50, KB [10, 15]: 9.0 µg/mL | ED50, KB-VIN [11]: 9 µg/mL

— patent publication US7795299B2, “Neo-tanshinlactone and analogs as potent and selective anti-breast cancer agents” (The University of North Carolina at Chapel Hill, priority 2004, dated 2010)
